# Test results published in patent US11813277B2, “Methods and agents for modulating inflammation” (The Regents of the University of California, priority 2018, dated 2023).
# Entries after “also recorded” stand apart in the source; their conditions may differ.
# Columns and labels:
# [1] = system: Relma, Mgl2, Ym1, Fabp4, Arg1 expression; assay: qPCR of IL-4-associated genes in BMDMs; format: cell-based, mouse
# Procedure: For all gene expression and flow cytometry experiments described below, day 6 BMDM were plated at 3×10^5 cell/well in 12-well plates. The next day, cells were treated with appropriate compounds (and duration as indicated in figures and below) in DMEM supplemented with 5% FBS, 2 mM L-glutamine, 100 units/mL, 100 μg/mL penicillin/streptomycin, 500 μM of sodium pyruvate and 5% v/v conditioned media containing macrophage colony stimulating factor (M-CSF).
# For flow cytometry experiments involving etomoxir (FIG. 1G, FIG. 2A, FIG. 2D, FIG. 3A, FIG. 3B, FIG. 3G, FIG. 3H): BMDMs were mock-treated (media replacement only) or treated with 20 ng/mL of IL-4±3 μM or 200 μM of etomoxir for 48 hr. When measuring expression of M(IL-4)-associated genes in response to etomoxir (FIG. 1H, FIG. 2B), BMDMs were mock-treated or treated with 20 ng/mL of IL4±etomoxir as indicated for 24 hr.
# For experiments involving respiratory chain inhibitors: BMDMs were mock-treated (media replacement only) or treated with 20 ng/mL of IL4±1.2 μM oligomycin (Oligo), 200 nM rotenone (Rot), 200 nM antimycin A (AntiA), 100 nM piericidin A (PierA), or 5 μM carboxyatractylate (CAT) for either 24 (FIG. 4G, FIG. 4H, FIG. 6G) or 48 hr (FIG. 4F, FIG. 7D). All inhibitors were given as co-treatments simultaneously with IL-4.
# RNA was isolated with TRIzol, then cDNA was synthesized with high-capacity cDNA reverse transcription kit. KAPA SYBR FAST qPCR Master Mix kit and a LightCycler 480 were used for quantitative RT-PCR. Fold change related to the control group was calculated using […] with 36b4 as the reference gene.
# Arginase = Arginase activity in BMDMs; format: cell-based, mouse; conditions: 200 μM etomoxir, IL-4, 24 hr
# Procedure: On Day 6 of differentiation, BMDMs were seeded at 1×10^6 cells/well in 6-well plates. 24 hr later, BMDMs were mock-treated or co-treated with 20 ng/mL IL-4±200 μM etomoxir in DMEM supplemented with 5% FBS, 2 mM L-glutamine, 100 units/mL, 100 μg/mL penicillin/streptomycin, 500 μM of sodium pyruvate and 5% v/v conditioned media containing macrophage colony stimulating factor (M-CSF) for 24 hr. Prior to sample collections, cells were washed with 600 μL of ice-cold PBS twice and scraped into 1.5 mL centrifuge tubes. Cell lysate was prepared according to Arginase Activity Assay Kit (Sigma MAK112) instructions and the 20 μL of lysate was used to measure arginase activity. Arginase activity was adjusted to total cell number.
# LCFA oxidation in BMDMs = assay: 9,10-3H-palmitate oxidation (3H2O release) in BMDMs; format: cell-based, mouse; conditions: 3 μM etomoxir
# Procedure: BMDMs at day 6 of differentiation were seeded at 3×10^5 cells/well in 12 well plates in BMDM media. The next day, cells were treated in DMEM containing 25 mM glucose supplemented with 5% FBS, 2 mM L-Glutamax, 100 units/mL, 100 μg/mL penicillin/streptomycin, 1 mM of sodium pyruvate, 1 mM carnitine, and 5% v/v conditioned media containing macrophage colony stimulating factor (M-CSF) under one of 5 conditions: control, 20 ng/mL of IL-4±3 μM or 200 μM of etomoxir, or 200 nM rotenone, or 200 nM antimycin A for 24 hr. Fatty acid oxidation was measured 24 hours later as previously described (Rognstad, R. (1991) Estimation of peroxisomal and mitochondrial fatty acid oxidation in rat hepatocytes using tritiated substrates. Biochem J 279:147-150, 1991; Cha, B. S., Ciaraldi, T. P., Park, K. S., Carter, L., Mudaliar, S. R., and Henry R R. (2005) Impaired fatty acid metabolism in type 2 diabetic skeletal muscle cells is reversed by PPARgamma agonists. Am J Physiol Endocrinol Metab. 289, E151-9) following a fluid change to DMEM with components as described above except 10 mM glucose and 0.2 μCi (final concentration of 5 μM) BSA-conjugated [9,10-3H]palmitic acid. No additional IL-4 was added at the time of this fluid change, but etomoxir, rotenone and antimycin A were added, and the plates were placed in a […] incubator at 37° C. for 3 hr. After incubation, a 100 μL aliquot of the culture medium was passed over an ion-exchange resin, and the column was washed twice with 0.75 ml of water. Free fatty acids were retained by the resin, whereas the tritium hydrolyzed from radiolabeled palmitate catabolism was released as labeled water, which passes freely through the resin, and is subsequently counted for radioactivity. All data are corrected for protein content in each well. There were 3 technical replicates for each condition, and 4 biological replicates arising from 4 separate animals.
# HepG2 hepatoma cells = assay: Maximal respiration in intact HepG2 hepatoma cells (positive control); format: cell-based; conditions: 3 μM etomoxir
# Procedure: All respirometry studies were conducted in either a Seahorse XF96 or XFe96 Analyzer. All experiments were conducted at 37° C., and at pH 7.4 (intact cells) or 7.2 (permeabilized cells and isolated mitochondria). Calculation of respiratory parameters was made according to standard protocols (Divakaruni, A. S., Paradyse, A., Ferrick, D. A., Murphy, A. N., and Jastroch, M. (2014a) Analysis and interpretation of microplate-based oxygen consumption and pH data. Meth. Enzym 547, 509-54), and all rates were corrected for non-mitochondrial respiration/background signal by subtracting the oxygen consumption rate insensitive to rotenone plus antimycin A.
# Detailed description of FIG. 5. (FIG. 5A) Maximal FCCP-stimulated respiration in response to 3 μM etomoxir in six cell types (experimental conditions in Materials and Methods). […] (n≥3 independent biological replicates). (FIG. 5B) (Left) Maximal respiration in HepG2 cells offered 8 mM glucose, 2 mM glutamine, and 2 mM pyruvate in the experimental medium with BPTES and UK5099 (both at 3 μM)±3 μM etomoxir. (n=4 independent biological replicates). (Right) Maximal respiration in 3T3-L1 adipocytes offered 1 mM glucose and 0.5 mM carnitine in the experimental medium with increasing concentrations of etomoxir. (n=3 independent biological replicates). […]
structure (smiles),measurement,setting,value
CCOC(=O)[C@@]1(CCCCCCOc2ccc(Cl)cc2)CO1 [etomoxir],"gene expression of Relma, Mgl2, Ym1, Fabp4, Arg1","[1]; 3 μM etomoxir, IL-4, 24 hr",no change
same,Fabp4 and Arg1 expression,"[1]; 200 μM etomoxir, IL-4, 24 hr",no change
same,"Relma, Mgl2, Ym1 expression","[1]; 200 μM etomoxir, IL-4, 24 hr",blocked the induction; also recorded: significantly decreased
same,Fabp4 expression,"[1]; etomoxir, IL-4",unresponsive
same,Arginase activity,Arginase,unaffected
same,3H2O release from tritiated palmitate,LCFA oxidation in BMDMs,effectively suppress
same,respiration,HepG2 hepatoma cells,sufficient to inhibit respiration
